Active and inactive are the calls of the source. The rule behind the calls is not given here.
Tested on: CCRIS mutagenicity, Ames/micronucleus/aberration tests
Test: CCRIS mutagenicity studies
[1] = Test System: AMES SALMONELLA TYPHIMURIUM, Strain/Indicator: TA98, Metabolic Activation: NONE, Method: STANDARD PLATE
[2] = Test System: AMES SALMONELLA TYPHIMURIUM, Strain/Indicator: TA98, Metabolic Activation: RAT, LIVER, S-9, AROCLOR 1254, Method: STANDARD PLATE
[3] = Test System: AMES SALMONELLA TYPHIMURIUM, Strain/Indicator: TA100, Metabolic Activation: NONE, Method: STANDARD PLATE
[4] = Test System: AMES SALMONELLA TYPHIMURIUM, Strain/Indicator: TA100, Metabolic Activation: RAT, LIVER, S-9, AROCLOR 1254, Method: STANDARD PLATE
[5] = Test System: AMES SALMONELLA TYPHIMURIUM, Strain/Indicator: TA1535, Metabolic Activation: NONE, Method: STANDARD PLATE
[6] = Test System: AMES SALMONELLA TYPHIMURIUM, Strain/Indicator: TA1538, Metabolic Activation: NONE, Method: STANDARD PLATE
[7] = Test System: AMES SALMONELLA TYPHIMURIUM, Strain/Indicator: TA1538, Metabolic Activation: RAT, LIVER, S-9, AROCLOR 1254, Method: STANDARD PLATE
[8] = Test System: AMES SALMONELLA TYPHIMURIUM, Strain/Indicator: TA100, Metabolic Activation: NONE, Method: PREINCUBATION
[9] = Test System: AMES SALMONELLA TYPHIMURIUM, Strain/Indicator: TA98, Metabolic Activation: NONE, Method: PREINCUBATION
[10] = Test System: AMES SALMONELLA TYPHIMURIUM, Strain/Indicator: TA1535, Metabolic Activation: NONE, Method: PREINCUBATION

For `C=CC(=O)OCC(C)(C)COC(=O)C=C`, the mutagenic call [1] was “inactive; negative”, the mutagenic call [2] was “inactive; negative” and the mutagenic call (Test System: AMES SALMONELLA TYPHIMURIUM, Strain/Indicator: TA98, Metabolic Activation: RAT, LIVER, S-9, SODIUM PHENOBARBITAL, Method: STANDARD PLATE) was “inactive; negative”. For the same compound, the mutagenic call [3] was “inactive; negative”, the mutagenic call [4] was “inactive; negative” and the mutagenic call (Test System: AMES SALMONELLA TYPHIMURIUM, Strain/Indicator: TA100, Metabolic Activation: RAT, LIVER, S-9, SODIUM PHENOBARBITAL, Method: STANDARD PLATE) was “inactive; negative”. For the same compound, the mutagenic call [5] was “inactive; negative”, the mutagenic call (Test System: AMES SALMONELLA TYPHIMURIUM, Strain/Indicator: TA1535, Metabolic Activation: RAT, LIVER, S-9, AROCLOR 1254, Method: STANDARD PLATE) was “inactive; negative” and the mutagenic call (Test System: AMES SALMONELLA TYPHIMURIUM, Strain/Indicator: TA1535, Metabolic Activation: RAT, LIVER, S-9, SODIUM PHENOBARBITAL, Method: STANDARD PLATE) was “inactive; negative”. For the same compound, the mutagenic call (Test System: AMES SALMONELLA TYPHIMURIUM, Strain/Indicator: TA1537, Metabolic Activation: NONE, Method: STANDARD PLATE) was “inactive; negative”, the mutagenic call (Test System: AMES SALMONELLA TYPHIMURIUM, Strain/Indicator: TA1537, Metabolic Activation: RAT, LIVER, S-9, AROCLOR 1254, Method: STANDARD PLATE) was “inactive; negative” and the mutagenic call (Test System: AMES SALMONELLA TYPHIMURIUM, Strain/Indicator: TA1537, Metabolic Activation: RAT, LIVER, S-9, SODIUM PHENOBARBITAL, Method: STANDARD PLATE) was “inactive; negative”. For the same compound, the mutagenic call [6] was “inactive; negative”, the mutagenic call [7] was “inactive; negative” and the mutagenic call (Test System: AMES SALMONELLA TYPHIMURIUM, Strain/Indicator: TA1538, Metabolic Activation: RAT, LIVER, S-9, SODIUM PHENOBARBITAL, Method: STANDARD PLATE) was “inactive; negative”.
`COc1cc(Cl)c(Cl)c(Cl)c1O` was tested, and the mutagenic call (Test System: CHINESE HAMSTER V-79, Strain/Indicator: V-79/6-THIOGUANINE, Metabolic Activation: NONE, Method: STANDARD PLATE) was “active; positive” and the mutagenic call (Test System: CHINESE HAMSTER V-79, Strain/Indicator: V-79/6-THIOGUANINE, Metabolic Activation: PRIMARY RAT HEPATOCYTES, Method: STANDARD PLATE) was “inactive; negative”.
`CC\C=C/C=C\C=C/C=C\C=C/OCCC` was tested, and the mutagenic call [8] was “active; positive”.
In the case of `CC(=O)OCc1ccc([N+](=O)[O-])cc1`, the mutagenic call [9] is reported as “inactive; negative”, the mutagenic call (Test System: AMES SALMONELLA TYPHIMURIUM, Strain/Indicator: TA100(NR), Metabolic Activation: NONE, Method: PREINCUBATION) is reported as “inactive; negative” and the mutagenic call [8] is reported as “active; positive”. For the same compound, the mutagenic call (Test System: AMES SALMONELLA TYPHIMURIUM, Strain/Indicator: TA100, Metabolic Activation: RAT, LIVER, S-9, AROCLOR 1254, Method: PREINCUBATION) was “active; positive”.
For `[K+]`, the mutagenic call (End Point: IN VIVO MICRONUCLEUS, Test System: BONE MARROW POLYCHROMATIC ERYTHROCYTES, Species: MOUSE, Strain/Sex: DDY/MALE, Route: IP) was “inactive; negative”, the mutagenic call (End Point: In vitro chromosomal aberrations, Test System: Chinese hamster lung (CHL) cells, Metabolic Activation: None) was “active; positive (structural changes)” and the mutagenic call (Test System: AMES SALMONELLA TYPHIMURIUM, Strain/Indicator: TA97, Metabolic Activation: HAMSTER, LIVER, S-9, AROCLOR 1254 (10 OR 30%), Method: PREINCUBATION) was “inactive; negative”. For the same compound, the mutagenic call (Test System: AMES SALMONELLA TYPHIMURIUM, Strain/Indicator: TA97, Metabolic Activation: NONE, Method: PREINCUBATION) was “inactive; negative”, the mutagenic call (Test System: AMES SALMONELLA TYPHIMURIUM, Strain/Indicator: TA97, Metabolic Activation: RAT, LIVER, S-9, AROCLOR 1254 (10 OR 30%), Method: PREINCUBATION) was “inactive; negative” and the mutagenic call (Test System: AMES SALMONELLA TYPHIMURIUM, Strain/Indicator: TA98, Metabolic Activation: HAMSTER, LIVER, S-9, AROCLOR 1254 (10 OR 30%), Method: PREINCUBATION) was “inactive; negative”. For the same compound, the mutagenic call [9] was “inactive; negative”, the mutagenic call (Test System: AMES SALMONELLA TYPHIMURIUM, Strain/Indicator: TA98, Metabolic Activation: RAT, LIVER, S-9, AROCLOR 1254 (10 OR 30%), Method: PREINCUBATION) was “inactive; negative” and the mutagenic call (Test System: AMES SALMONELLA TYPHIMURIUM, Strain/Indicator: TA100, Metabolic Activation: HAMSTER, LIVER, S-9, AROCLOR 1254 (10 OR 30%), Method: PREINCUBATION) was “inactive; negative”. The mutagenic call [8] was “inactive; negative”, the mutagenic call (Test System: AMES SALMONELLA TYPHIMURIUM, Strain/Indicator: TA100, Metabolic Activation: RAT, LIVER, S-9, AROCLOR 1254 (10 OR 30%), Method: PREINCUBATION) was “inactive; negative” and the mutagenic call (Test System: AMES SALMONELLA TYPHIMURIUM, Strain/Indicator: TA1535, Metabolic Activation: HAMSTER, LIVER, S-9, AROCLOR 1254 (10 OR 30%), Method: PREINCUBATION) was “inactive; negative”. For the same compound, the mutagenic call [10] was “inactive; negative” and the mutagenic call (Test System: AMES SALMONELLA TYPHIMURIUM, Strain/Indicator: TA1535, Metabolic Activation: RAT, LIVER, S-9, AROCLOR 1254 (10 OR 30%), Method: PREINCUBATION) was “inactive; negative”.
For `c1ccc(Cc2ccc(CC3CO3)cc2)cc1` (stereo not given), the mutagenic call [8] was “inactive; negative”, the mutagenic call [3] was “active; positive” and the mutagenic call [10] was “inactive; negative”. The mutagenic call [5] was “active; positive”.
With `CN(N=O)C(=O)Nc1ccc(F)cc1` the mutagenic call (End Point: IN VITRO CHROMOSOMAL ABERRATIONS, Test System: CHINESE HAMSTER V79-E CELLS, Metabolic Activation: NONE) was “active; weakly positive”.
`COc1c(O)c2c(c3cc(C(=O)N4CCc5c4c(O)c(OC)c4[nH]c(C(=O)N6C[C@H]7C[C@@]78C6=CC(=O)c6[nH]cc(C)c68)cc54)[nH]c13)CCN2C(N)=O` was tested, and the mutagenic call [1] was “inactive; negative”, the mutagenic call [2] was “inactive; negative” and the mutagenic call [3] was “inactive; negative”. The mutagenic call (Test System: CHINESE HAMSTER V-79, Strain/Indicator: V-79/6-THIOGUANINE, Metabolic Activation: NONE) was “active; positive”.
`Nc1cccc2cc3ccccc3cc12` was tested, and the mutagenic call [1] was “inactive; negative”, the mutagenic call (Test System: AMES SALMONELLA TYPHIMURIUM, Strain/Indicator: TA98, Metabolic Activation: RAT LIVER, CYTOSOL, AROCLOR 1254, Method: STANDARD PLATE) was “inactive; negative” and the mutagenic call (Test System: AMES SALMONELLA TYPHIMURIUM, Strain/Indicator: TA98, Metabolic Activation: RAT LIVER, MICROSOMES, AROCLOR 1254, Method: STANDARD PLATE) was “active; positive”. The mutagenic call (Test System: AMES SALMONELLA TYPHIMURIUM, Strain/Indicator: TA98, Metabolic Activation: RAT, LIVER, S-9, AROCLOR 1254 (2 OR 4%), Method: STANDARD PLATE) was “active; positive”, the mutagenic call [2] was “active; positive” and the mutagenic call (Test System: AMES SALMONELLA TYPHIMURIUM, Strain/Indicator: TA98, Metabolic Activation: RAT, LIVER, S-9, PHENOBARBITAL, Method: STANDARD PLATE) was “active; positive”. For the same compound, the mutagenic call [3] was “inactive; negative”, the mutagenic call (Test System: AMES SALMONELLA TYPHIMURIUM, Strain/Indicator: TA100, Metabolic Activation: RAT, LIVER, S-9, AROCLOR 1254 (2%), Method: STANDARD PLATE) was “inactive; negative” and the mutagenic call [4] was “active; positive”. The mutagenic call (Test System: AMES SALMONELLA TYPHIMURIUM, Strain/Indicator: TA100, Metabolic Activation: RAT, LIVER, S-9, PHENOBARBITAL, Method: STANDARD PLATE) was “active; positive”, the mutagenic call (Test System: AMES SALMONELLA TYPHIMURIUM, Strain/Indicator: TA1535, Metabolic Activation: RAT, LIVER, S-9, AROCLOR 1254 (2%), Method: STANDARD PLATE) was “active; positive” and the mutagenic call (Test System: AMES SALMONELLA TYPHIMURIUM, Strain/Indicator: TA1537, Metabolic Activation: RAT, LIVER, S-9, AROCLOR 1254 (2%), Method: STANDARD PLATE) was “active; positive”. For the same compound, the mutagenic call (Test System: MOUSE LYMPHOMA, Strain/Indicator: L5178Y (TK+/TK-), Metabolic Activation: RAT, LIVER, S-9, AROCLOR 1254, Method: SUSPENSION/PLATE) was “active; positive”.
In the case of `COc1ccc(C(=O)[C@@H]2O[C@@H]2c2ccccc2)cc1`, the mutagenic call [1] is reported as “inactive; negative”, the mutagenic call [2] is reported as “inactive; negative” and the mutagenic call [3] is reported as “inactive; negative”. The mutagenic call [4] was “inactive; negative”.
`CCN(CC)c1ccc(-c2ccc(-c3ccc(-c4ccc(N(CC)CC)cc4)cc3)cc2)cc1` was tested, and the mutagenic call [6] was “inactive; negative” and the mutagenic call [7] was “inactive; negative”.
`[N-]=[N+]=NCC(O)Cn1cnc2c(N)ncnc21` (stereo not given) was tested, and the mutagenic call [3] was “active; positive”.
